Publication PMC8912909, “Drug development for the treatment of onchocerciasis: Population pharmacokinetic and adverse events modeling of emodepside” (PLoS Neglected Tropical Diseases, 2022)

Tests used:
[1] = Safety analysis: drug-related treatment-emergent adverse events (TEAE) in three phase I studies; type: in vivo, human
Procedure: For a detailed safety analysis for emodepside, based on the entire safety population (pharmacokinetic sample and placebo arms) of the phase I clinical trials the reader is referred to the recently published article by Gillon et al.. In the present study, the safety analysis and exposure–adverse events analysis was performed on all subjects whom were included in the population pharmacokinetic analysis (n = 142), i.e. all subjects who received at least 1 dose of the study drug as LSF solution, ASD-tablet A or ASD-tablet B. Safety was assessed in terms of incidence of a drug-related TEAE (as assessed by the investigator) and reported as Medical Dictionary for Regulatory Activities (MedDRA) code. A TEAE was defined as an event that emerged during treatment and having been absent pretreatment, or that worsened relative to the pretreatment state.

[2] = Linear regression of DBS vs. plasma concentrations; parameters: species or system human; settings: DBS concentration = slope × plasma concentration-0.592; r^2 = 0.987, n = 228
Excerpt: Deuterated emodepside-D16 was used as the internal standard.
Supplementary file pntd.0010219.s008.tif: S1 Fig Linear regression analysis (emodepside DBS vs. plasma concentrations). Observations are represented by black open circles, the black solid line represents the line of identity, and the black dotted line represents the linear regression. DBS concentration = 0.605 × plasma concentration-0.592 (r^2 = 0.987, standard error of estimate, SEE = 5.74, n = 228). (TIF) Click here for additional data file.

[3] = human, in vivo, po; cited from earlier work
Excerpt: Currently, emodepside is under clinical development for the treatment of onchocerciasis, following a repurposing strategy and a collaboration agreement between DNDi and Bayer AG [26]. The safety, pharmacokinetics and relative bioavailability of emodepside after oral dosing in healthy male subjects have been evaluated in three phase I clinical trials, including a First-in-Human study. […] The long terminal half-life (> 20 d ...

CYP3A4 = settings: has been shown; no reference given; cited from earlier work
[4] = Population pharmacokinetic model (NONMEM) of pooled phase I plasma and DBS concentrations
[5] = inter-compartmental clearance, oral, 75 kg adult, n = 142
[6] = nonparametric bootstrap, 75 kg adult

CC(C)C[C@H]1C(=O)O[C@H](Cc2ccc(N3CCOCC3)cc2)C(=O)N(C)[C@@H](CC(C)C)C(=O)O[C@H](C)C(=O)N(C)[C@@H](CC(C)C)C(=O)O[C@H](Cc2ccc(N3CCOCC3)cc2)C(=O)N(C)[C@@H](CC(C)C)C(=O)O[C@H](C)C(=O)N1C [emodepside, Emodepside]
Time to resolution of drug-related TEAEs of interest after onset ([1]; all apart from visual impairment in one subject): ≤ 48 h
Nature and severity of drug-related TEAEs ([1]; all, apart from moderate headaches in two subjects at 40 mg LSF solution): transient in nature and mild in severity
Lag of drug-related TEAE of interest relative to Tmax, most subjects ([1]; in vivo): 0 to 2.5 h
Share of drug-related TEAEs of interest occurring at 1–3 h post-dose ([1]; in vivo): 83%
Time to resolution of visual impairment in one subject ([1]; in vivo): 21 days
Deaths or severe drug-related TEAEs ([1]; n = 142): no deaths or severe drug-related TEAEs reported
Subjects with drug-related TEAEs of interest, % ([1]; n = 142): 19.0%
Abdominal pain, % of subjects with drug-related TEAE ([1]; n = 142, pooled phase I): 0.7%
Balance disorder, % of subjects with drug-related TEAE ([1]; n = 142, pooled phase I): 0.7%
Cough, % of subjects with drug-related TEAE ([1]; n = 142, pooled phase I): 0.7%
Disorientation, % of subjects with drug-related TEAE ([1]; n = 142, pooled phase I): 0.7%
Disturbance in attention, % of subjects with drug-related TEAE ([1]; n = 142, pooled phase I): 0.7%
Euphoric mood, % of subjects with drug-related TEAE ([1]; n = 142, pooled phase I): 1.4%
Eye disorders, % of subjects with drug-related TEAE ([1]; n = 142, pooled phase I): 14.1%
Eye pain, % of subjects with drug-related TEAE ([1]; n = 142, pooled phase I): 0.7%
Feeling of relaxation, % of subjects with drug-related TEAE ([1]; n = 142, pooled phase I): 2.1%
Gastrointestinal disorders, % of subjects with drug-related TEAE ([1]; n = 142, pooled phase I): 2.8%
General disorders and administration site conditions, % of subjects with drug-related TEAE ([1]; n = 142, pooled phase I): 0.7%
Headache, % of subjects with drug-related TEAE ([1]; n = 142, pooled phase I): 4.2%
Hypervigilance, % of subjects with drug-related TEAE ([1]; n = 142, pooled phase I): 0.7%
Muscle spasms, % of subjects with drug-related TEAE ([1]; n = 142, pooled phase I): 0.7%
Musculoskeletal and connective tissue disorders, % of subjects with drug-related TEAE ([1]; n = 142, pooled phase I): 0.7%
Nausea, % of subjects with drug-related TEAE ([1]; n = 142, pooled phase I): 2.1%
Nervous system disorders, % of subjects with drug-related TEAE ([1]; n = 142, pooled phase I): 12.7%
Nervousness, % of subjects with drug-related TEAE ([1]; n = 142, pooled phase I): 0.7%
Oropharyngeal pain, % of subjects with drug-related TEAE ([1]; n = 142, pooled phase I): 0.7%
Paraesthesia oral, % of subjects with drug-related TEAE ([1]; n = 142, pooled phase I): 0.7%
Photophobia, % of subjects with drug-related TEAE ([1]; n = 142, pooled phase I): 1.4%
Photopsia, % of subjects with drug-related TEAE ([1]; n = 142, pooled phase I): 0.7%
Pigmentation disorder, % of subjects with drug-related TEAE ([1]; n = 142, pooled phase I): 0.7%
Psychiatric disorders, % of subjects with drug-related TEAE ([1]; n = 142, pooled phase I): 1.4%
Respiratory, thoracic and mediastinal disorders, % of subjects with drug-related TEAE ([1]; n = 142, pooled phase I): 0.7%
Sensation of foreign body, % of subjects with drug-related TEAE ([1]; n = 142, pooled phase I): 0.7%
Skin and subcutaneous tissue disorders, % of subjects with drug-related TEAE ([1]; n = 142, pooled phase I): 0.7%
Somnolence, % of subjects with drug-related TEAE ([1]; n = 142, pooled phase I): 0.7%
Vision blurred, % of subjects with drug-related TEAE ([1]; n = 142, pooled phase I): 4.9%
Visual acuity reduced, % of subjects with drug-related TEAE ([1]; n = 142, pooled phase I): 0.7%
Visual impairment, % of subjects with drug-related TEAE ([1]; n = 142, pooled phase I): 9.2%
Vomiting, % of subjects with drug-related TEAE ([1]; n = 142, pooled phase I): 0.7%
Subjects with drug-related TEAEs, % ([1]; n = 142, pooled phase I, oral 1–40 mg): 21.8%
Abdominal pain, subjects experiencing drug-related TEAE ([1]; of n = 142, pooled phase I): 1
Balance disorder, subjects experiencing drug-related TEAE ([1]; of n = 142, pooled phase I): 1
Cough, subjects experiencing drug-related TEAE ([1]; of n = 142, pooled phase I): 1
Disorientation, subjects experiencing drug-related TEAE ([1]; of n = 142, pooled phase I): 1
Disturbance in attention, subjects experiencing drug-related TEAE ([1]; of n = 142, pooled phase I): 1
Euphoric mood, subjects experiencing drug-related TEAE ([1]; of n = 142, pooled phase I): 2
Eye disorders, subjects experiencing drug-related TEAE ([1]; of n = 142, pooled phase I): 20
Eye pain, subjects experiencing drug-related TEAE ([1]; of n = 142, pooled phase I): 1
Feeling of relaxation, subjects experiencing drug-related TEAE ([1]; of n = 142, pooled phase I): 3
Gastrointestinal disorders, subjects experiencing drug-related TEAE ([1]; of n = 142, pooled phase I): 4
General disorders and administration site conditions, subjects experiencing drug-related TEAE ([1]; of n = 142, pooled phase I): 1
Headache, subjects experiencing drug-related TEAE ([1]; of n = 142, pooled phase I): 6
Hypervigilance, subjects experiencing drug-related TEAE ([1]; of n = 142, pooled phase I): 1
Muscle spasms, subjects experiencing drug-related TEAE ([1]; of n = 142, pooled phase I): 1
Musculoskeletal and connective tissue disorders, subjects experiencing drug-related TEAE ([1]; of n = 142, pooled phase I): 1
Nausea, subjects experiencing drug-related TEAE ([1]; of n = 142, pooled phase I): 3
Nervous system disorders, subjects experiencing drug-related TEAE ([1]; of n = 142, pooled phase I): 18
Nervousness, subjects experiencing drug-related TEAE ([1]; of n = 142, pooled phase I): 1
Oropharyngeal pain, subjects experiencing drug-related TEAE ([1]; of n = 142, pooled phase I): 1
Paraesthesia oral, subjects experiencing drug-related TEAE ([1]; of n = 142, pooled phase I): 1
Photophobia, subjects experiencing drug-related TEAE ([1]; of n = 142, pooled phase I): 2
Photopsia, subjects experiencing drug-related TEAE ([1]; of n = 142, pooled phase I): 1
Pigmentation disorder, subjects experiencing drug-related TEAE ([1]; of n = 142, pooled phase I): 1
Psychiatric disorders, subjects experiencing drug-related TEAE ([1]; of n = 142, pooled phase I): 2
Respiratory, thoracic and mediastinal disorders, subjects experiencing drug-related TEAE ([1]; of n = 142, pooled phase I): 1
Sensation of foreign body, subjects experiencing drug-related TEAE ([1]; of n = 142, pooled phase I): 1
Skin and subcutaneous tissue disorders, subjects experiencing drug-related TEAE ([1]; of n = 142, pooled phase I): 1
Somnolence, subjects experiencing drug-related TEAE ([1]; of n = 142, pooled phase I): 1
Vision blurred, subjects experiencing drug-related TEAE ([1]; of n = 142, pooled phase I): 7
Visual acuity reduced, subjects experiencing drug-related TEAE ([1]; of n = 142, pooled phase I): 1
Visual impairment, subjects experiencing drug-related TEAE ([1]; of n = 142, pooled phase I): 13
Vomiting, subjects experiencing drug-related TEAE ([1]; of n = 142, pooled phase I): 1
Subjects with both eye disorders and nervous system disorders ([1]; of the 27 subjects with TEAE of interest): 41%
Subjects with drug-related TEAEs of interest (eye disorders and nervous system disorders), number ([1]; out of 142 subjects): 27
Subjects with drug-related TEAEs, number ([1]; out of 142 subjects): 31
Incidence of non drug-related infections and infestations, active treatment arms ([1]; vs. 0% placebo, p=0.13 (two-sided Fisher's exact test)): 10.5%
Slope of linear regression, DBS concentration vs. plasma concentration [2]: 0.605
Terminal half-life [3]: > 20 days
Enzyme catalyzing oxidative metabolism (CYP3A4): predominantly catalyzed by CYP3A4
Venous plasma–DBS scaling factor, population estimate (%RSE) ([4]; DBS concentration as % of venous plasma concentration, DBS from 12 subjects): 61.8 (2.9) %
Vc/F, population estimate (%RSE) ([4]; central volume of distribution, oral, 75 kg adult, n = 142): 52.4 (3.4) L
Maximum difference in MTT between the lowest and the highest dose ([4]; dose range 1–40 mg, 0.012–0.667 mg per kg body weight per day): 70%
Q1/F, population estimate (%RSE) [4, 5]: 4.60 (5.1) L/h
Q2/F, population estimate (%RSE) [4, 5]: 8.45 (2.9) L/h
Dose on MTT, population estimate (%RSE) ([4]; linear, dose range 1–40 mg): 105 (22.3) % per mg /kg/day
CL/F ([4]; male, human, in vivo, po): 21.5 mL/min
MTT, population estimate (%RSE) ([4]; mean absorption transit time, oral, reference LSF solution, fasted, 75 kg adult, n = 142 healthy male subjects): 0.488 (3.5) h
Dose on MTT, bootstrapping median (95% CI) ([4]; nonparametric bootstrap): 104.5 (62.9–154) % per mg /kg/day
Venous plasma–DBS scaling factor, bootstrapping median (95% CI) ([4]; nonparametric bootstrap): 61.8 (58.2–65.2) %
MTT, bootstrapping median (95% CI) ([4]; nonparametric bootstrap, 860 successful runs of 1,000, 75 kg adult): 0.489 (0.456–0.521) h
CL/F, bootstrapping median (95% CI) [4, 6]: 1.29 (1.18–1.40) L/h
Q1/F, bootstrapping median (95% CI) [4, 6]: 4.60 (4.14–5.04) L/h
Q2/F, bootstrapping median (95% CI) [4, 6]: 8.43 (7.97–8.87) L/h
Vc/F, bootstrapping median (95% CI) [4, 6]: 52.4 (49.2–55.8) L
Vp1 / F, bootstrapping median (95% CI) [4, 6]: 45.1 (38.0–53.4) L
Vp2/F, bootstrapping median (95% CI) [4, 6]: 647 (592–707) L
Dose proportionality of exposure ([4]; present study population, 1–40 mg): dose-proportional
Food intake on MTT, population estimate (%RSE) ([4]; reference: fasted state): 114 (22.6) %
Reduction in F when the dose was given together with food ([4]; reference: fasted state): 24.4%
Food intake on MTT, bootstrapping median (95% CI) ([4]; reference: fasted state, nonparametric bootstrap): 114.7 (69.0–168) %
Vp1 / F, population estimate (%RSE) ([4]; volume of distribution of peripheral compartment 1, oral, 75 kg adult, n = 142): 44.4 (8.7) L
Vp2/F, population estimate (%RSE) ([4]; volume of distribution of peripheral compartment 2, oral, 75 kg adult, n = 142): 647 (4.5) L
